Measured values taken from ChEMBL document CHEMBL1139202, “Inhibition of mycobacterial arylamine N-acetyltransferase contributes to anti-mycobacterial activity of Warburgia salutaris” (Bioorg Med Chem, 2007).
Calls of active or inactive are those of the source. The rule behind the calls is not given here.

Tests used:
[1] = test system: Mycobacterium tuberculosis; assay: Growth inhibition of Mycobacterium tuberculosis H37Rv at 0.05 ug/mL after 21 days; assay type: functional, organism-based
[2] = molecular target: T1, Arylamine N-acetyltransferase (Mycolicibacterium smegmatis, UniProt O86309); assay: Inhibition of Mycobacterium smegmatis recombinant NAT expressed in Escherichia coli BL21 at 0.5 mg/mL
T1 sequence (O86309 whole entry): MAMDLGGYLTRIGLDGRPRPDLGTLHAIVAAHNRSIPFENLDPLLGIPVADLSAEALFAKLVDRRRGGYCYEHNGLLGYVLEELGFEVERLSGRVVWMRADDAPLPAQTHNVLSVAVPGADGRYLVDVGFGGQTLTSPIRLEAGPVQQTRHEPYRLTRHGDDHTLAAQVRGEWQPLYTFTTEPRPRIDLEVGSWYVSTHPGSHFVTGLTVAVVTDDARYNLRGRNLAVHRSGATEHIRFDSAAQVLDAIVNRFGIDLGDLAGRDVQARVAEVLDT

SMILES: NNC(=O)c1ccncc1
- Activity [1]: Active

SMILES: CC(=O)O[C@@H]1C=C2C(=O)O[C@@H](O)[C@]2(O)[C@@]2(C)CCCC(C)(C)[C@H]12
- inhibition at 500 µg/mL [2]: 35%
